The values that follow come from publication PMC4629079 (Acta Pharmaceutica Sinica. B, 2014).

For one assay, the system named is HSV-1. Nature of the assay: Anti-HSV-1 CPE assay in Vero cells. It is filed as cell-based, HSV-1 virus.
The next assay has as its system B/Jifang/13/97. Nature of the assay: Anti-influenza B CPE assay. It counts as cell-based.
Another assay has as its system A/FM/1/47. Briefly: Anti-influenza A CPE inhibitory assay in MDCK cells. It is filed as cell-based, influenza A/FM/1/47(H1N1). The following applies: for IC50: CPE, Reed and Muench.
The test system of the next assay is Cox B3. Nature of the assay: Anti-Coxsackie B3 CPE inhibitory assay in Vero cells. The conditions noted are these: for IC50: Cox B3, 158TCID50, CPE, Reed and Muench. It is filed as cell-based, Coxsackie viruses (Cox B3 Nancy strain).

Where two headings read alike, the source gives them in different places.

What is called IC50 is the concentration that inhibits the measured activity by half. Higher therefore signals weaker potency. `Nc1nc2c(ncn2COCCO)c(=O)[nH]1` [ACV, Acyclovir, reference compound] yielded an IC50 in the assay on HSV-1 (Human alphaherpesvirus 1, Vero) of 1.82 µM.

Turning to `COC(=O)c1cc2c(OC)cc(N)cc2[nH]1` [Compound 1f, Methyl 6-amino-4-methoxy-1H-indole-2-carboxylate], the IC50 in the assay on B/Jifang/13/97 (Influenza B virus) is greater than 33.7 µM; with A/FM/1/47 (Influenza A virus, MDCK) it was less than 52 µM; in the assay on A/FM/1/47, 33.7 µM; in the assay on HSV-1 (Human alphaherpesvirus 1, Vero), greater than 33.7 µM; with Cox B3 (Vero) it was greater than 33.7 µM.

For `COC(=O)c1cc2c(OCc3ccccc3)cc(NC(C)=O)cc2[nH]1` [Compound 2e, Methyl 6-acetamido-4-(benzyloxy)-1H-indole-2-carboxylate], the IC50 is greater than 65.7 µM with A/FM/1/47 (Influenza A virus, MDCK); greater than 21.9 µM with HSV-1 (Human alphaherpesvirus 1, Vero); greater than 21.9 µM in the assay on Cox B3 (Vero).

Turning to `COC(=O)c1cc2c(OCc3ccccc3)cc(N)cc2[nH]1` [Compound 2f, Methyl 6-amino-4-(benzyloxy)-1H-indole-2-carboxylate], the IC50 was greater than 25.1 µM in the assay with A/FM/1/47 (Influenza A virus, MDCK); greater than 2.78 µM in the assay on HSV-1 (Human alphaherpesvirus 1, Vero); 1.59 µM with Cox B3 (Vero).

Consider `COC(=O)c1cc2c(OCc3ccc(F)cc3)cc(N)cc2[nH]1` [Compound 3f, Methyl 6-amino-4-(4-fluorobenzyloxy)-1H-indole-2-carboxylate], for which the IC50 is greater than 70.8 µM with A/FM/1/47 (Influenza A virus, MDCK); greater than 7.87 µM in the assay on HSV-1 (Human alphaherpesvirus 1, Vero); 4.55 µM in the assay on Cox B3 (Vero).

Regarding `COC(=O)c1cc2c(OCc3ccc(OC)cc3)cc(N)cc2[nH]1` [Compound 4f, Methyl 6-amino-4-(4-methoxybenzyloxy)-1H-indole-2-carboxylate], the IC50 in the assay with A/FM/1/47 (Influenza A virus, MDCK) is greater than 205 µM; in the assay on HSV-1 (Human alphaherpesvirus 1, Vero), greater than 7.58 µM; in the assay with Cox B3 (Vero) it was greater than 7.58 µM.

Regarding `COC(=O)c1cc2c(OCC3CCCCC3)cc(N)cc2[nH]1` [Compound 5f, Methyl 6-amino-4-(cyclohexylmethoxy)-1H-indole-2-carboxylate], the IC50 in the assay on A/FM/1/47 (Influenza A virus, MDCK) is greater than 8.15 µM; in the assay with HSV-1 (Human alphaherpesvirus 1, Vero) it was greater than 8.15 µM; in the assay with Cox B3 (Vero), greater than 2.71 µM.

Regarding `C=CCOc1cc(N)cc2[nH]c(C(=O)OC)cc12` [Compound 6f, Methyl 4-(allyloxy)-6-amino-1H-indole-2-carboxylate], the IC50 is greater than 30.1 µM in the assay with B/Jifang/13/97 (Influenza B virus); less than 52 µM with A/FM/1/47 (Influenza A virus, MDCK); greater than 30.1 µM in the assay on HSV-1 (Human alphaherpesvirus 1, Vero); 30.1 µM with Cox B3; less than 50 µM with Cox B3 (Vero).

As to `COC(=O)c1cc2c(OC3CC3)cc(N)cc2[nH]1` [Compound 7f, Methyl 6-amino-4-cyclopropoxy-1H-indole-2-carboxylate], the IC50 in the assay on A/FM/1/47 (Influenza A virus, MDCK) was greater than 85.5 µM; in the assay with HSV-1 (Human alphaherpesvirus 1, Vero) it was greater than 85.5 µM; in the assay with Cox B3 (Vero), 49.4 µM.

`COC(=O)c1cc2c(OCC(C)C)cc(NC(C)=O)cc2[nH]1` [Compound 8e, Methyl 6-acetamido-4-isobutoxy-1H-indole-2-carboxylate]: the IC50 with B/Jifang/13/97 (Influenza B virus) was greater than 8.13 µM; in the assay with A/FM/1/47 (Influenza A virus, MDCK) it was 8.13 µM; with HSV-1 (Human alphaherpesvirus 1, Vero), greater than 24.4 µM; with Cox B3 (Vero), greater than 24.4 µM.

On to `COC(=O)c1cc2c(OCC(C)C)cc(N)cc2[nH]1` [Compound 8f, Methyl 6-amino-4-isobutoxy-1H-indole-2-carboxylate], for which the IC50 in the assay with B/Jifang/13/97 (Influenza B virus) was greater than 9.43 µM; in the assay on A/FM/1/47 (Influenza A virus, MDCK), 9.43 µM; with HSV-1 (Human alphaherpesvirus 1, Vero), greater than 28.3 µM; in the assay with Cox B3 (Vero), 7.18 µM.

With `CCOc1cc(N)cc2[nH]c(C(=O)OC)cc12` [Compound 9f, Methyl 6-amino-4-ethoxy-1H-indole-2-carboxylate], the IC50 with B/Jifang/13/97 (Influenza B virus) is greater than 31.7 µM; in the assay on A/FM/1/47 (Influenza A virus, MDCK), 18.3 µM; in the assay on HSV-1 (Human alphaherpesvirus 1, Vero) it was greater than 31.7 µM; in the assay with Cox B3 (Vero), greater than 31.7 µM.

Consider `COC(=O)c1cc2c(OC(C)C)cc(N)cc2[nH]1` [Compound 10f, Methyl 6-amino-4-isopropoxy-1H-indole-2-carboxylate], for which the IC50 in the assay with B/Jifang/13/97 (Influenza B virus) is greater than 89.6 µM; in the assay on A/FM/1/47 (Influenza A virus, MDCK) it was less than 52 µM; in the assay on A/FM/1/47, 51.7 µM; in the assay with HSV-1 (Human alphaherpesvirus 1, Vero), greater than 89.6 µM; in the assay on Cox B3 (Vero) it was greater than 89.6 µM.

In the case of `COC(=O)c1cc2c(OC)cccc2[nH]1` [Compound 11e, Methyl 4-methoxy-1H-indole-2-carboxylate], the IC50 was greater than 108 µM in the assay with B/Jifang/13/97 (Influenza B virus); 62.6 µM with A/FM/1/47 (Influenza A virus, MDCK); greater than 108 µM in the assay with HSV-1 (Human alphaherpesvirus 1, Vero); 108 µM in the assay with Cox B3 (Vero).

With `COC(=O)c1cc2c(OCc3ccccc3)cc(OC)cc2[nH]1` [Compound 12e, Methyl 4-(benzyloxy)-6-methoxy-1H-indole-2-carboxylate], the IC50 in the assay with B/Jifang/13/97 (Influenza B virus) is greater than 23.8 µM; in the assay on HSV-1 (Human alphaherpesvirus 1, Vero), greater than 7.94 µM; with Cox B3 (Vero) it was greater than 7.94 µM.

As to `COC(=O)c1cc2c(OCc3ccccc3)cccc2[nH]1` [Compound 13e, Methyl 4-(benzyloxy)-1H-indole-2-carboxylate], the IC50 with B/Jifang/13/97 (Influenza B virus) was greater than 26.4 µM; in the assay with A/FM/1/47 (Influenza A virus, MDCK) it was less than 52 µM; in the assay on A/FM/1/47, 26.4 µM; with HSV-1 (Human alphaherpesvirus 1, Vero), greater than 8.79 µM; in the assay on Cox B3 (Vero) it was greater than 8.79 µM.

Consider `COC(=O)c1cc2ccc(NC(C)=O)cc2[nH]1` [Compound 14e, Methyl 6-acetamido-1H-indole-2-carboxylate], for which the IC50 is greater than 95.8 µM in the assay on B/Jifang/13/97 (Influenza B virus); 95.8 µM in the assay with A/FM/1/47 (Influenza A virus, MDCK); greater than 287 µM with HSV-1 (Human alphaherpesvirus 1, Vero); 72.8 µM in the assay with Cox B3 (Vero). For the same compound, in the assay with A/FM/1/47, the “anti-influenza A activity (in words)” value is listed as “showed anti-influenza A activity”. Also, the “anti-Cox B3 activity (in words)” value in the assay with Cox B3 is reported as “showed anti-Cox B3 activity”.

On to `COC(=O)c1cc2ccc(N)cc2[nH]1` [Compound 14f, Methyl 6-amino-1H-indole-2-carboxylate], for which, in the assay on B/Jifang/13/97, the “antiviral activity against the influenza B strain (in words)” value is listed as “displayed antiviral activity”. Further, the IC50 in the assay on B/Jifang/13/97 (Influenza B virus) is 13 µM; in the assay with A/FM/1/47 (Influenza A virus, MDCK), 7.53 µM; in the assay with HSV-1 (Human alphaherpesvirus 1, Vero), greater than 117 µM; in the assay on Cox B3 (Vero), 67.5 µM. Further, the “anti-influenza A activity (in words)” value in the assay on A/FM/1/47 was “showed anti-influenza A activity”. Besides, in the assay on Cox B3, the “anti-Cox B3 activity (in words)” value is “showed anti-Cox B3 activity”.

Consider `COC(=O)c1cc2ccc(N(C)C)cc2[nH]1` [Compound 15e, Methyl 6-(dimethylamino)-1H-indole-2-carboxylate], for which the IC50 in the assay on B/Jifang/13/97 (Influenza B virus) was greater than 102 µM; with A/FM/1/47 (Influenza A virus, MDCK), 102 µM; with HSV-1 (Human alphaherpesvirus 1, Vero) it was 102 µM; in the assay on Cox B3 it was 44.7 µM; in the assay with Cox B3 (Vero), less than 50 µM. Also, the “anti-influenza A activity (in words)” value with A/FM/1/47 is “showed anti-influenza A activity”. Further, the “activity towards HSV-1 (in words)” value with HSV-1 was “showed activity”. Also, in the assay with Cox B3, the “anti-Cox B3 activity (in words)” value is on record as “showed anti-Cox B3 activity”.

Take `COC(=O)c1cc2c(OC)ccc(N)c2[nH]1` [Compound 16f, Methyl 7-amino-4-methoxy-1H-indole-2-carboxylate]: the IC50 is greater than 3.73 µM in the assay on A/FM/1/47 (Influenza A virus, MDCK); greater than 33.7 µM with HSV-1 (Human alphaherpesvirus 1, Vero); greater than 33.7 µM in the assay on Cox B3 (Vero).

For the compound `CCOc1ccc(N)c2[nH]c(C(=O)OC)cc12` [Compound 17f, Methyl 7-amino-4-ethoxy-1H-indole-2-carboxylate], the IC50 is greater than 10.6 µM in the assay on A/FM/1/47 (Influenza A virus, MDCK); 10.6 µM in the assay on HSV-1 (Human alphaherpesvirus 1, Vero); 10.6 µM with Cox B3 (Vero). In addition, the “activity towards HSV-1 (in words)” value in the assay with HSV-1 is listed as “showed activity”.

For `CCCOc1ccc(N)c2[nH]c(C(=O)OC)cc12` [Compound 18f, Methyl 7-amino-4-propoxy-1H-indole-2-carboxylate], the IC50 in the assay on A/FM/1/47 (Influenza A virus, MDCK) is greater than 3.31 µM; in the assay on HSV-1 (Human alphaherpesvirus 1, Vero) it was greater than 29.9 µM; with Cox B3, 29.9 µM; in the assay on Cox B3 (Vero) it was less than 50 µM.

For the compound `CCOC(=O)C1=C[C@@H](OC(CC)CC)[C@H](NC(C)=O)[C@@H](N)C1` [Oseltamivir, oseltamivir, reference compound], the IC50 with B/Jifang/13/97 (Influenza B virus) is 115 µM; in the assay on A/FM/1/47 (Influenza A virus, MDCK), 6.43 µM.

For the compound `NC(=O)c1ncn([C@@H]2O[C@H](CO)[C@@H](O)[C@H]2O)n1` [RBV, ribavirin, reference compound], the IC50 stood at 10.1 µM in the assay on B/Jifang/13/97 (Influenza B virus); 2.58 µM in the assay with A/FM/1/47 (Influenza A virus, MDCK); 1060 µM in the assay on Cox B3 (Vero).

For the compound “Methyl 6-acetimidamido-4-methoxy-1H-indole-2-carboxylate [Compound 1e]”, the IC50 with B/Jifang/13/97 is 254 µM; in the assay on A/FM/1/47 it was 254 µM; in the assay on HSV-1 (HSV-1, 100TCID50, CPE, Reed and Muench), greater than 254 µM; with Cox B3 it was greater than 254 µM. For the same compound, the “antiviral activity against the influenza B strain (in words)” value in the assay with B/Jifang/13/97 was “displayed antiviral activity”.
